Three compounds from US20050020658A1, “Selective cyclooxygenase-2 inhibitor patch” (priority 2002, published 2005) can be followed below.

SMILES strings stand for the structures.

Series [1] in a line: Skin flux of 10 mM drug solutions in NMP, Franz diffusion cell. To be noted: 10 mM solution in NMP, 1 ml; receptor 10% NMP in phosphate buffer saline pH 7.4; 32° C.; 3 replicates. The series is classed as in vitro ADME, rat. On the procedure: A 15 mm disk of the membrane was placed on a diffusion cell filled with the receptor fluid and the diffusion cell was maintained at 32° C. A 10 mM solution of each drug in NMP was placed in an amount of 1 ml on the membrane. […] The test was conducted in 3 replicates.

A short description of series [2]: Solubility of celecoxib and valdecoxib in various solvents at room temperature. The series is classed as physicochemical. The method, then:
In order to identify candidate solvent systems for patch formulations of selective COX-2 inhibitory drugs of low water solubility, various solvents were tested for solubility of celecoxib and valdecoxib at room temperature.

The nature of series [3]: In vitro skin permeation of poultice, tape and gel formulations, Franz diffusion cell. The series is classed as in vitro ADME, rat. The method, then:
A 15 mm disk of the membrane was placed on a diffusion cell filled with the receptor fluid and the diffusion cell was maintained at 32° C. A 10 mM solution of each drug in NMP was placed in an amount of 1 ml on the membrane. […] The test was conducted in 3 replicates. […] The test solutions in this example comprised celecoxib or valdecoxib at a concentration of 1% weight/volume in various solvents. The test was conducted in 3 replicates. A 25 mm disk was punched from each poultice and placed on a Franz diffusion cell. […]

Series [4] can be described thus: Solubility of valdecoxib in NMP/PEG 400 mixtures at room temperature. The series is classed as physicochemical. The method, then:
Solubility was determined by preparing a saturated solution of valdecoxib in the test solvent system at 80° C. and cooling this solution for 24 hours at room temperature.

A short description of series [5]: In vitro skin permeation of 1% drug solutions, Franz diffusion cell. The series is classed as in vitro ADME, rat. The method, then: A 15 mm disk of the membrane was placed on a diffusion cell filled with the receptor fluid and the diffusion cell was maintained at 32° C. A 10 mM solution of each drug in NMP was placed in an amount of 1 ml on the membrane. The amount of drug that had permeated through the membrane by various times in an 8-10 hour period was determined by HPLC analysis of the receptor fluid. The test was conducted in 3 replicates. […] The test solutions in this example comprised celecoxib or valdecoxib at a concentration of 1% weight/volume in various solvents. The test was conducted in 3 replicates. […] The test solutions in this example comprised celecoxib or valdecoxib at a concentration of 1% weight/volume in NMP, with or without oleic acid at 1% weight/volume. The test was conducted in 3 replicates.

[6] abbreviates: in 1,3-butylene glycol, room temperature.
The mark [7] stands for this setting: in crotamiton, room temperature.
Setting [8] is: in diethyl sebacate, room temperature.
[9] abbreviates: in dipropylene glycol, room temperature.
The mark [10] stands for this setting: in propylene glycol, room temperature.
Setting [11] is: 0.5% poultice (crotamiton/PEG 400 solvents), 25 mm disk.

`CC(C(=O)O)c1cccc(C(=O)c2ccccc2)c1` (centres unmarked) [ketoprofen] had a skin flux in series [1] of 33.4 nmol/cm^2 · h.
As to `Cc1onc(-c2ccccc2)c1-c1ccc(S(N)(=O)=O)cc1` [valdecoxib, 4-[5-methyl-3-phenylisoxazol-4-yl]benzenesulfonamide], the solubility in series [2] (setting [6]) was 19 mg/g; in series [2] (in DIA, room temperature) it was 20 mg/g; in series [2] (in NMP, room temperature), 190 mg/g; in series [2] (in PEG 400, room temperature), 198 mg/g; in series [2] (setting [7]), 165 mg/g; in series [2] (setting [8]), 10 mg/g. The solubility in series [2] (setting [9]) was 67 mg/g; in series [2] (in glycerol, room temperature) it was 1 mg/g; in series [2] (setting [10]), 30 mg/g; in series [4] (NMP:PEG 400 ratio 0:5, saturated at 80° C., cooled 24 hours at room temperature) it was 169 mg/g; in series [4] (NMP:PEG 400 ratio 5:0), 190 mg/g; in series [4] (NMP:PEG 400 ratio 5:1), 149 mg/g. Moreover, the solubility came out at 126 mg/g in series [4] (NMP:PEG 400 ratio 5:2), 100 mg/g in series [4] (NMP:PEG 400 ratio 5:3), 73 mg/g in series [4] (NMP:PEG 400 ratio 5:4) and 71 mg/g in series [4] (NMP:PEG 400 ratio 5:5). For the same compound, the skin flux is listed as 0.009 μg/cm^2 · h in series [3] (setting [11]); 0.115 μg/cm^2 · h in series [3] (1.0% gel (70% ethanol), 200 mg); 0.51 μg/cm^2 · h in series [5] (1% weight/volume in NMP); “not detectable” in series [5] (1% weight/volume in PEG 400); 0.02 μg/cm^2 · h in series [5] (1% weight/volume in crotamiton); 3.3 nmol/cm^2 · h in series [1]. Besides, the “time at which amount of drug permeated reached a plateau” value in series [5] (1% in NMP, FIG. 4) was “about 4 hours”.
Take `Cc1ccc(-c2cc(C(F)(F)F)nn2-c2ccc(S(N)(=O)=O)cc2)cc1` [celecoxib, 4-[5-(4-methylphenyl)-3-(trifluoromethyl)-1H-pyrazol-1-yl]benzenesulfonamide]: the solubility came to 20 mg/g in series [2] (setting [6]); 94 mg/g in series [2] (in DIA, room temperature); 219 mg/g in series [2] (in NMP, room temperature); 340 mg/g in series [2] (in PEG 400, room temperature); 306 mg/g in series [2] (setting [7]); 77 mg/g in series [2] (setting [8]). Also, the solubility was 44 mg/g in series [2] (setting [9]) and 28 mg/g in series [2] (setting [10]). Further, the skin flux is 0.008 μg/cm^2 · h in series [3] (setting [11]); 0.039 μg/cm^2 · h in series [3] (1.0% gel (70% ethanol), 200 mg); 0.15 μg/cm^2 · h in series [5] (1% weight/volume in NMP); “not detectable” in series [5] (1% weight/volume in PEG 400); “not detectable” in series [5] (1% weight/volume in crotamiton); 1.6 nmol/cm^2 · h in series [1].
